Earlier results as cited in patent EP0529484A1, “Antitussive and expectorant composition” (ND NEW DRUG DEVELOPMENT INSTITUTE INC., priority 1991, dated 1993).

What was measured:
[1] = tested on: mouse
[2] = tested on: rat

C[N+]1(CCF)[C@@H]2CC[C@H]1C[C@@H](OC(=O)C(O)(c1ccccc1)c1ccccc1)C2 (stereo partly drawn) [flutropium bromide, 8(r)-8-(2-fluoroethyl)-3α-hydroxy-1αH,5αH-tropanium bromide, benzilate hydrate]
LD₅₀ through oral administration [1]: 930 mg/kg
LD₅₀ through oral administration [2]: 2,900 mg/kg
